Consider 3 compounds from patent US8501789B2, “Use of salicylaldehyde isonicotinoyl hydrazone (SIH) for protection against retinal disease” (The Trustees of the University of Pennsylvania, priority 2007, dated 2013).

The test system of series [1] is ARPE-19 cells. The format is cell-based. Conditions: for 5 mM H2O2 cytotoxicity: LDH release and Live/Dead. The procedure:
Red indicates dead cells as detected by ethidium bromide homodimer fluorescence. Green indicates live cells as detected by calcein fluorescence;
(§1) Human adult RPE cells (ARPE-19 cell line from ATCC) were cultured until confluent in 24-well Falcon plates in 1:1 DMEM High Glucose with L-Glutamine and Ham's F12 media (Invitrogen, Carlsbad, Calif.) supplemented with 10% FBS (Hyclone, Logan, Utah). For labile iron detection ARPE cells were stably transfected with a pcDNA3.1 plasmid with an IRE-GFP insert (gift of Drs. Sangwon Kim and Sol Snyder, Johns Hopkins) as a reporter for intracellular iron levels. These cells were named iron-reporting ARPE (iRPE) cells. Efficacy of labile iron chelation was tested by adding different concentrations of SIH to the iron-free MEM medium on iRPE cells and assessing decrease in GFP fluorescence as a measure of reduction in intracellular iron levels at the 24 h time point. Epifluorescence microscopy was performed with a Nikon TE-300 microscope (Nikon Inc., Japan) and SpotRT Slider camera (Diagnostic Instruments, Inc., Sterling Heights, Mich.) with ImagePro Plus software, version 4.1 (Media Cybernetics, Silver Spring, Md.).
(§2) To evaluate SIH's cytoprotective properties, SIH at different concentrations was applied to confluent ARPE-19 cells four hrs prior to the addition of H2O2, staurosporine or anti-Fas antibody. Hydrogen peroxide (30% H2O2 from Sigma, St. Louis, Mo.) at final concentration ranging from 1 to 5 mM, Staurosporine (1 mM solution from Sigma) at 100-500 nM final concentration or aFas antibody (Upstate-Millipore, Billerica, Mass.) at 1 μg/mL final concentration were mixed with the indicated concentrations of SIH immediately before applying to ARPE-19 cells. All reagents were dissolved in Minimal Essential Medium (MEM, Invitrogen) as indicated and were applied rapidly and uniformly following two washing steps in HBSS.
Cell death was assayed after 24 hrs using the LDH Release Assay Kit (Roche, Basel, Switzerland). Cytotoxicity was calculated using the ratio between maximum LDH release in 2% Triton X100-treated cells and minimum LDH release in cells incubated in MEM. Visualization of cell death was performed using the LIVE/DEAD Viability/Cytotoxicity kit (Invitrogen).

In series [2] the test system is intracellular labile iron levels in ARPE-19 cells stably transfected with the IRE-GFP reporter (iRPE). In words: Labile iron chelation in IRE-GFP iron-reporting ARPE (iRPE) cells, GFP fluorescence. In kind it is cell-based, Human. Conditions: for GFP fluorescence (labile iron level): iRPE cells, 24 h, iron-free MEM. The procedure: Fluorescence intensity indicates relative intracellular iron levels. […] Images are representative of results from 3 independent experiments and taken using identical exposure parameters;
as §1, with “Efficacy of labile iron chelation was tested by adding different concentrations of SIH to the iron-free MEM medium on iRPE cells and assessing decrease in GFP fluorescence as a measure of reduction in intracellular iron levels at the 24 h time point.” left out
To quantify the labile iron pool, an iron-reporting RPE cell line (iRPE) was first generated, wherein fluorescence green fluorescent protein reflects labile iron levels. This was accomplished by making a stable cell line with the plasmid IRE-GFP (gift of Sangwon Kim and Sol Snyder). The iron responsive element (IRE) sequence in the 5′ untranslated region of the mRNA is bound by iron regulatory proteins only when labile iron levels are low, leading to inhibition of GFP translation. The fluorescence of iRPE cells treated with different concentrations of SIH for 24 h was determined (FIG. 2).

The test system of series [3] is ARPE-19 cells. In words: Intracellular ROS generation, dihydrorhodamine 123 fluorescence. The format is cell-based, Human.
Procedure: Level of ROS generation is detected by dihydrorhodamine 123 (green fluorescence) in cells treated with staurosporine and/or 3 μM SIH as indicated. Mitotracker dye (red fluorescence) indicates location of mitochondria; and
Intracellular ROS generation was measured in cultured cells by using the fluorescent probe dihydrorhodamine 123 (DHR123). Mitochondria were localized with Mitotracker Red 580 (Molecular Probes, Eugene, Oreg.). After 30 min of staurosporine exposure with our without SIH, cells were incubated with staurosporine +/−SIH in the presence of 10 μM DHR123 and 2 μM Mitotracker Red 580 at 37° C. for 15 min. DHR fluoresces and localizes to mitochondria when oxidized by ROS to the positively charged rhodamine 123^33. Mitotracker dye passively diffuses across the plasma membrane and specifically accumulates in active mitochondria.
To test whether iron contributes to this ROS production, and whether a decrease in mitochondrial ROS might be a mechanism of SIH protection, ROS were detected with rhodamine 123 after 30 min of staurosporine treatment. In the presence of ROS, non-fluorescent dihydrorhodamine 123 is converted into highly fluorescent rhodamine 123.
Series [4] has as its system ARPE-19 cells. In kind it is cell-based, Human.
The subject of series [5] is ARPE-19 cells. In words: Staurosporine-induced cell death, LDH release and LIVE/DEAD assay. The format is cell-based, Human. The procedure: as §2, with “(A) Graph of LDH release following exposure of ARPE-19 cells to varying concentrations of staurosporine. […] (B) Graph of LDH release following exposure of ARPE-19 cells to 200 nM staurosporine plus different concentrations of SIH. […] (C) Fluorescence photomicrograph of cells labeled with the LIVE/DEAD assay following treatment with staurosporine and/or SIH as indicated; To” for “To”, “HBSS. Cell death was assayed after 24 hrs using the LDH Release Assay Kit (Roche, Basel, Switzerland). Cytotoxicity was calculated using the ratio between maximum LDH release in 2% Triton X100-treated cells and minimum LDH release in cells incubated in MEM. Visualization of cell death was performed using the LIVE/DEAD Viability/Cytotoxicity kit (Invitrogen).” for “HBSS.”

The nature of series [6]: UV/VIS spectra of SIH, H2O2 and their mixture (chemical interaction). In kind it is physicochemical.
In series [7] the test system is ARPE-19 cells. In words: Anti-Fas antibody (aFas)-induced cell death, LDH release assay. In kind it is cell-based, Human. To be noted: SIH beginning 4 hrs before treatment with aFas.
Procedure: All reagents were dissolved in Minimal Essential Medium (MEM, Invitrogen) as indicated and were applied rapidly and uniformly following two washing steps in HBSS. Cell death was assayed after 24 hrs using the LDH Release Assay Kit (Roche, Basel, Switzerland). Cytotoxicity was calculated using the ratio between maximum LDH release in 2% Triton X100-treated cells and minimum LDH release in cells incubated in MEM.
Series [8] has as its system ARPE-19 cells that had accumulated A2E. In words: A2E/blue light-induced cell death, MTT assay. In kind it is cell-based. The procedure: Graphs show ARPE-19 cell viability measured by the MTT assay. Increased absorbance indicates increased viability. (A) Cells were incubated with the indicated concentrations of SIH-MEM for 4 h, irradiated with blue light for 20 min in DPBS-SIH, and incubated in MEM-SIH for 24 hr before performing MTT assay. (B) Cells were pre-treated with MEM-SIH for 4 h, irradiated with blue light for 20 min in DPBS and incubated in MEM for 24 h. (C) Cells were irradiated by blue light for 20 min in DPBS and SIH-MEM was applied immediately after irradiation and maintained for 24 hrs. (D) Cells were irradiated with blue light for 20 min in DPBS and SIH-MEM was applied 1 h after irradiation and maintained for 23 h before performing MTT assay. For all graphs, relative to no SIH, * p<0.05, ** p<0.01, *** p<0.001;
For blue light irradiation experiments ARPE-19 cells devoid of endogenous lipofuscin were grown in complete medium (DMEM with 10% fetal calf serum and supplements) as previously described. At confluence the cells were allowed to accumulate A2E from a 10 μM concentration delivered in the culture medium over a 2 week period.
ARPE-19 cells that had accumulated A2E were treated with SIH in MEM for 4 hrs unless otherwise indicated. The SIH/MEM was subsequently exchanged for DPBS, the cells were irradiated at 430 nm for 20 min and then returned to complete medium and incubated for 24 hrs. Variations on this paradigm included experiments in which exposure to SIH/MEM was continued during illumination at 430 nm and for 24 hr thereafter; and experiments in which cells were not pre-incubated with SIH but instead were treated with SIH/MEM beginning either immediately after irradiation and continuing for 24 hrs or beginning 1 hr after irradiation and continuing for 23 hrs. In all experiments controls included A2E-laden irradiated cells that were not treated with SIH, cells that received no treatment (A2E-free, non-irradiated, incubation with MEM in the absence of SIH) and cells treated only with SIH.
In blue light irradiation experiments cell death was assayed by the 3-(4,5-dimethylthiazol-2-yl)-2,5-diphenyltetrazolium bromide assay, a measure of the ability of healthy cells to cleave the yellow tetrazolium salt MTT to purple formazan crystals. Briefly, following the post-illumination incubation described above, 20 uL of MTT labeling reagent (Roche Diagnostics Corp, Indianapolis, Ind.) was added to 0.2 mL of culture medium in each well and after a 4 hr incubation, the labeling reagent was replaced with 200 uL of solubilization solution for an overnight incubation. After centrifugation at 13,000 rpm for 2 min, supernatants were measured spectrophotometrically. A decrease in the absorbance (570 nm) of reduced MTT was indicative of diminished cellular viability.

Read-outs that look alike come from different tables or passages of the source.

As to `OO` [H2O2, hydrogen peroxide, reference compound], the cell death in the series on ARPE-19 cells [1] (5 mM H2O2, 24 h, LDH release and Live/Dead assay) turned out to be 100%.

In the case of `O=C(NN=Cc1ccccc1O)c1ccncc1` [SIH, salicylaldehyde isonicotinoyl hydrazone], the “GFP fluorescence (labile iron level)” value in series [2] (3 μM SIH) is “decreased significantly”; in series [2] (10 μM SIH), “decreased significantly”; in series [2] (50 μM SIH), “close to the level of untreated control”; in series [2] (100 μM SIH) it was “close to the level of untreated control”; in series [2] (1 mM SIH), “decreased slightly”. The iRPE fluorescence levels result in series [2] (iron-containing medium DMEM-F12 with 10% fetal calf serum) was “decreased the fluorescence”. Further, the “5 mM H2O2 cytotoxicity” value with ARPE-19 cells [1] (5 μM SIH before H2O2 and mixed with H2O2, 24 h) is “completely abolished”; in the series on ARPE-19 cells [1] (10 μM SIH before H2O2 and mixed with H2O2, 24 h) it was “completely abolished”. Also, the “cytoprotection against H2O2” value is given as “no protection” in the series with ARPE-19 cells [1] (SIH applied 1 h after H2O2 (data not shown)), “Diminished cytoprotection” in the series on ARPE-19 cells [1] (SIH applied together with H2O2 but without SIH pre-treatment) and “no protection” in the series on ARPE-19 cells [1] (SIH pre-incubated with ferric ammonium citrate in a 2:1 molar ratio (data not shown)). Besides, the “staurosporine-induced rhodamine 123 fluorescence (ROS)” value with ARPE-19 cells [3] (3 μM SIH) was “diminished”. Moreover, the “carbonyl levels in total protein extracts” value in the series with ARPE-19 cells [4] (H2O2-treated cells, 5 μM SIH, 24 h) is “did not affect”. In addition, the “carbonyl levels in mitochondria-enriched fractions” value with ARPE-19 cells [4] (cells treated for 24 h with H202, 5 μM SIH) was “more pronounced decrease”; in the series with ARPE-19 cells [4] (cells treated for 24 h with staurosporine, 5 μM SIH), “more pronounced decrease”. The “carbonyls in total protein extracts” value with ARPE-19 cells [4] (staurosporine-treated cells, 5 μM SIH, 24 h) is reported as “small decrease”. Besides, the “cell viability (LDH release)” value in the series on ARPE-19 cells [5] (SIH 4 h before and through 24 h of 200 nM staurosporine) is on record as “increased in an SIH concentration-dependent manner”; with ARPE-19 cells [5] (SIH 4 h before and through 24 h of 500 nm staurosporine (not shown)) it was “increased in an SIH concentration-dependent manner”. For the same compound, the “red (dead) cells, live/dead fluorescent imaging” value in the series on ARPE-19 cells [5] (staurosporine plus 5 μM SIH) and in the series with ARPE-19 cells [5] (staurosporine plus 10 μM SIH) was “very few or none” in each case. Further, the “SIH concentration of greatest cytoprotective effect” value with ARPE-19 cells [5] (staurosporine-induced cell death) turned out to be 10 µM. In series [6], the “changes in spectroscopic properties of SIH-H2O2 mixture compared with SIH and H2O2 alone” value is “did not detect any changes”. Besides, in the series with ARPE-19 cells [7], the “cell death caused by Fas activation (LDH release)” value was “reduced cell death”. Also, the “protection of cell viability (MTT)” value in series [8] (SIH applied 1 hr after light exposure) is “partial protection”. Moreover, the “cell viability (MTT)” value is “cell viability was increased” in series [8] (SIH before, during, or as late as 1 hr after blue light exposure); “greatest increase in cell viability” in series [8] (SIH present before, during, and after light exposure). In addition, in series [8] (cells incubated with SIH but not exposed to A2E or blue light), the SIH-mediated toxicity result was “No SIH-mediated toxicity”.

For the compound `CN[C@@H]1C[C@H]2O[C@@](C)([C@@H]1OC)n1c3ccccc3c3c4c(c5c6ccccc6n2c5c31)C(=O)NC4` [staurosporine, reference compound], the “fluorescence of rhodamine 123 (ROS)” value in the series with ARPE-19 cells [3] (200 nM staurosporine for 30 min, then dihydrorhodamine 123 for 15 min) is given as “increased fluorescence”; in the series on ARPE-19 cells [3] (500 nM staurosporine), “greater increase in fluorescence”. For the same compound, the “cell death (LDH release)” value in the series on ARPE-19 cells [5] (200 nM staurosporine) and in the series with ARPE-19 cells [5] (500 nM staurosporine) was “significant cell death” in each case.
